# Peptide text beside a SMILES is read from it.
# Tested on: Caco-2 cells
# Description: Caco-2 cells were obtained from the American Type Culture Collection. Cells with a passage number of 40 to 70 were used for the permeation test. The culture medium comprised Dulbecco's modified Eagle's medium (Sigma) supplemented with fetal bovine serum (10%, AGC TECHNO GLASS CO., LTD.), a non-essential amino acid solution (1%, Gibco), and penicillin-streptomycin (each 200 IU/ml, 200 μg/ml, Gibco). The Caco-2 cells were cultured under humidified conditions at 37° C. and 5% CO2, and subcultured for every 4 to 5 days. For the permeation test, the cells were cultured on a membrane filter in a 12-transwell (Millipore). To a basal side 1.5 ml of the culture medium was added and 0.5 ml of culture medium was added to an apical side, and the cells were cultured for approximately 2 weeks. The enzymatic hydrolysate of the fermented milk was added to the apical side of the cultured Caco-2 cells. Peptides which were permeated to the basal side were collected. For comparison, the same test was performed on a digestive tract enzyme-degraded product of non-fermented reconstituted skimmed milk with a reconstitution ratio of 8.9%.
# The peptides which were permeated to the basal solution were subjected to solid phase extraction (SepPak tC18, Waters) to thereby concentrate the peptide component and then the peptides were determine by using a high-performance liquid chromatograph tandem mass spectrometer (LCMS-IT-TOF, Shimadzu Corporation). PEAKS (Bioinformatics Solutions Inc) was used to analyze the data. Based on the information obtained from MS/MS, de novo sequencing was performed to determine the amino acid sequence of the permeated peptides. Comparison was made between the detected peptides and peptides contained in a digestive tract enzyme-hydrolyzed product of a milk protein.
row,SMILES,Permeation through Caco-2 monolayer (apical to basal side)
1,CC[C@H](C)[C@H](N)C(=O)N1CCC[C@H]1C(=O)N1CCC[C@H]1C(=O)N[C@@H](CC(C)C)C(=O)O [Ile-Pro-Pro-Leu] (H-IPPL-OH; N-terminus and C-terminus assumed),permeable
2,CC[C@H](C)[C@H](N)C(=O)N1CCC[C@H]1C(=O)N1CCC[C@H]1C(=O)O [Ile-Pro-Pro],permeable
3,CC(C)[C@H](NC(=O)[C@@H]1CCCN1)C(=O)N[C@H](C(=O)N[C@H](C(=O)N1CCC[C@H]1C(=O)N1CCC[C@H]1C(=O)O)C(C)C)C(C)C [Pro-Val-Val-Val-Pro-Pro] (H-PVVVPP-OH; N-terminus and C-terminus assumed),permeable
4,CC(C)[C@H](N)C(=O)N1CCC[C@H]1C(=O)N1CCC[C@H]1C(=O)O [Val-Pro-Pro],permeable

# Now from value to compound:
row,Permeation through Caco-2 monolayer (apical to basal side),SMILES
1,permeable,CC[C@H](C)[C@H](NC(=O)[C@@H](N)CC(N)=O)C(=O)N1CCC[C@H]1C(=O)N1CCC[C@H]1C(=O)N[C@@H](CC(C)C)C(=O)O [Asn-Ile-Pro-Pro-Leu] (H-NIPPL-OH; N-terminus and C-terminus assumed)
2,permeable,CC(C)C[C@H](N)C(=O)N1CCC[C@H]1C(=O)N1CCC[C@H]1C(=O)N[C@H](C(=O)O)[C@@H](C)O [Leu-Pro-Pro-Thr] (H-LPPT-OH; N-terminus and C-terminus assumed)
3,permeable,NC(=O)CC[C@H](NC(=O)[C@@H]1CCCN1C(=O)[C@@H]1CCCN1C(=O)[C@@H](N)Cc1ccccc1)C(=O)O [Phe-Pro-Pro-Gln] (H-FPPQ-OH; N-terminus and C-terminus assumed)
4,permeable,CC(C)[C@H](N)C(=O)N1CCC[C@H]1C(=O)N1CCC[C@H]1C(=O)N[C@@H](Cc1ccccc1)C(=O)O [Val-Pro-Pro-Phe] (H-VPPF-OH; N-terminus and C-terminus assumed)
